Entries after “also recorded” stand apart in the source; their conditions may differ. Where two headings read alike, the source gives them in different places. Where a SMILES comes first, the peptide text is derived from it.
Columns and labels:
[1] = biological target: T1, plasmin originating from swine blood (Sus scrofa, UniProt P06867); test: Stabilizing effect of amino acids on plasmin solution, residual plasmin activity (casein) on storage; type: biochemical; details: 35.5°C, employed concentration 0.25 millimole per plasmin unit
T1 construct: from tissue; host or cells: swine blood
Method: (§1) Usually the activity of plasmin solutions is expressed in the number of plasmin units per milliliter. However, no definition of a plasmin unit has until now been internationally adopted. Here and in the following one plasmin unit means the amount of plasmin causing in 20 minutes the formation of decomposition products being soluble in perchloric acid and having an extinction of 1 unit at 275 mμ under the following experimental conditions:
(§2) By the addition of the perchloric acid a precipitation takes place, and the two test tubes now stand for 20 minutes whereafter filtration two times through filtering paper (J. H. Munktells unrivalled Genuine Swedish Filtering Paper No. 0.9 cm) is carried out. The extinction of the two solutions is thereafter measured at 275 mμ in a Beckman D U Spectrophotometer (1 cm quartz cuvette), the value of the sample having stood for 2 minutes being used as blind value.
If not, a saturated amino acid solution is employed.

[2] = test system: partially purified plasmin from human plasma; details: cited from earlier work; for effect on autolysis of plasmin: neutral solutions, 37°C
[3] = biological target: T2, plasmin solution from swine blood (Sus scrofa, UniProt P06867); test: Plasmin activity at high amino acid concentration and after dilution (reversible inactivation); type: biochemical
T2 construct: from tissue; host or cells: swine blood
Method: as §1
as §2, with “1 […] OF THE PLASMIN SOLUTION THE ACTIVITY OF WHICH IS TO BE DETERMINED AND THE PH of which is 7.5 is added to two test tubes each containing in 0.4 molar phosphate buffer (pH 7.50) 1 milliliter of a 3 per cent's solution of Hammarsten Casein said solution having been preheated to 35.5°C. […] By” for “By”
By way of illustration reference may be made to the following experiments:
a. A plasmin solution from swine blood and containing about 0.4 plasmin unit per milliliter and 2 millimoles of L-lysine per plasmin unit is produced in phosphate buffer (pH 7.5) whereafter the plasmin activity of the mixture is determined and compared with the activity of the plasmin solution without the amino acid addition and the activity of the mixture is expressed in per cent of the activity of the unmixed plasmin solution. Thereafter a dilution of the solution is carried out expressed in the original volume of the plasmin solution divided by the volume of the plasmin solution after the dilution, and the activity of the diluted solutions is determined.

plasmin [4] = biological target: plasmin (Homo sapiens, UniProt P00747); details: plasmin about 0.047 to about 0.229 units per ml; cited from earlier work
plasmin [5] = biological target: T3, plasmin (Sus scrofa, UniProt P06867); type: biochemical, swine; details: for % activity after 120 min. at 25°C / % activity after 60 min. at 25°C: 0.3 plasmin units per ml
Method: as §1
as §2, with “1 […] THE PLASMIN SOLUTION THE ACTIVITY OF WHICH IS TO BE […] THE PH of which is 7.5 is added to two test tubes each containing in 0.4 molar phosphate buffer (pH 7.50) 1 […] a 3 per cent's solution of Hammarsten Casein said solution having been preheated to 35.5°C. […] By” for “By”
The stabilizing effect of a long series of amino acids has been examined in connection with plasmin originating from swine blood and dissolved in phosphate buffer (pH 7.5). […] If not, a saturated amino acid solution is employed.

plasmin [6] = biological target: T3, plasmin; test: Initial loss of plasmin on adjusting concentrated acidified solution to pH 7.5; type: biochemical; details: 10 plasmin units per ml adjusted to pH 7.5 at 25°C
Description: In the tests referred to above use has been made of plasmin solutions having a plasmin content of 0.3 and 0.4 units, respectively, per milliliter. When using more concentrated solutions, e.g. containing 10 plasmin units per milliliter, an appreciable initial loss of plasmin will occur immediately by the adjustment of the pH-value from 2-3 up to neutral reaction unless amino acids are present in sufficient amounts. Thus, in the course of a few minutes an initial loss of 20 per cent may e.g. arise when an acidified plasmin solution containing 10 plasmin units per milliliter is adjusted to pH 7.5 at 25°C even if lysine is present in the solution in an amount of 0.002 millimole per plasmin unit. Such initial loss can, however, be avoided by increasing the amino acid concentration.

[7] = Solubility of plasmin in neutral aqueous solution; type: physicochemical; details: no amino acid
Description: While a neutral solution of plasmin in water becomes turbid due to a precipitation of plasmin when the plasmin concentration is 0.01 unit and more per milliliter, it is possible by the addition of an amino acid to produce clear neutral plasmin solutions having a plasmin concentration up to 25 units per milliliter.

[8] = Stability of plasmin solutions without amino acid
Description: Further, it is possible to produce a sterile plasmin solution which is adjusted to pH 1 to 4. […] By mixing such solution before use with a sterile amino acid solution which has either been buffered with one of the normal acid-base-buffer systems or has a sufficient amino acid content, it is possible to obtain a neutral stable plasmin solution.

[9] = 0.010 millimole L-lysine per plasmin unit
[10] = 0.021 millimole L-lysine per plasmin unit
[11] = 0.042 millimole L-lysine per plasmin unit
[12] = pH 7.5, read-out: Activity expressed in per cent of the total activity

T3 sequence (P06867 97-579 limits assumed): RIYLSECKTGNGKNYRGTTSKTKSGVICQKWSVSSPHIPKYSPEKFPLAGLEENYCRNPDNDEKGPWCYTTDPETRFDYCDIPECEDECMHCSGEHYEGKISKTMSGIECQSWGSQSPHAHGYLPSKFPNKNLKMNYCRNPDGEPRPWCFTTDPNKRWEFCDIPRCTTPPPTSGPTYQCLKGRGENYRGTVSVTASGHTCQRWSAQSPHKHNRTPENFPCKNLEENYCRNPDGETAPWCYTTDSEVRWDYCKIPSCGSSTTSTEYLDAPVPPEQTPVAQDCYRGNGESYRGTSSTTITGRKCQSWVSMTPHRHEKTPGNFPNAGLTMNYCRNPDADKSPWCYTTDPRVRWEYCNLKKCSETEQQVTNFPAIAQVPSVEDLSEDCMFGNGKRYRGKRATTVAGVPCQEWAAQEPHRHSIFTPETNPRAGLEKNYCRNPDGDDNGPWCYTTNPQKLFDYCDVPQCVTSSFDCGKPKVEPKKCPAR
T3 sequence (P06867 580-809 limits assumed): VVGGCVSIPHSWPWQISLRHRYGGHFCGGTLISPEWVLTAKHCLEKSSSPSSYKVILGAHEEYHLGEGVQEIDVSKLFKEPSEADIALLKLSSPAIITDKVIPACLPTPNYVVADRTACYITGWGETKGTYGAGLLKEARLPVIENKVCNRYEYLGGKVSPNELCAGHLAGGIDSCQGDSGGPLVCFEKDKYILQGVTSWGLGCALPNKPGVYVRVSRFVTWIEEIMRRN
T1 sequence (P06867 97-579 limits assumed): as the sequence (P06867 97-579 limits assumed) above
T1 sequence (P06867 580-809 limits assumed): as the sequence (P06867 580-809 limits assumed) above
T2 sequence (P06867 97-579 limits assumed): as the sequence (P06867 97-579 limits assumed) above
T2 sequence (P06867 580-809 limits assumed): as the sequence (P06867 580-809 limits assumed) above

## N=C(N)NCC(=O)O [Guanidino acetic acid]
[1]
  stabilizing effect (in words): considerably better than that of glycine and DL-valine

## O=C(O)[C@@H]1C[C@@H](O)CN1 [L(-)-hydroxyproline]
[1]
  stabilizing effect (in words): limited stabilizing effect

## NC(N)=O [urea]
[2]
  effect on autolysis of plasmin: may inhibit this autolysis

## CN [methylamine]
[2]
  effect on autolysis of plasmin: may inhibit this autolysis

## NCC(=O)O [Glycine]
[1]
  stabilizing effect (in words): rather insignificant; also recorded: faintly stabilizing effect

## CC(=O)N[C@@H](CCCNC(=N)N)C(=O)O [α-N-acetyl-L-arginine]
[1]
  stabilizing effect (in words): excellent stabilizing effect

## O=C(O)[C@@H]1CCCN1 [L(-)-proline]
[1]
  stabilizing effect (in words): limited stabilizing effect

## CN(CC(=O)O)C(=N)N [Creatine]
[1]
  stabilizing effect (in words): considerably better than that of glycine and DL-valine

## NCCCCCC(=O)O [ε-amino caproic acid]
[1]
  stabilizing effect (in words): stabilize considerably better than β-alanine
[1]; listed as ε-amino caproic acids
  stabilizing effect (in words): strongly stabilizing effect
[3]; Undiluted, 0.8 millimole amino acid per ml, 2 millimoles per plasmin unit, about 0.4 unit per ml, pH 7.5, read-out: Activity expressed in per cent of the total activity
  activity at 800000 µM: 57%
[3]; pH 7.5, Dilution 1:5, 0.16 millimole amino acid per ml, read-out: Activity expressed in per cent of the total activity
  activity at 160000 µM: 93%
[3]; pH 7.5, Dilution 2:5, 0.32 millimole amino acid per ml, read-out: Activity expressed in per cent of the total activity
  activity at 320000 µM: 84%
[3]; pH 7.5, Dilution 3:5, 0.48 millimole amino acid per ml, read-out: Activity expressed in per cent of the total activity
  activity at 480000 µM: 71%
[3]; pH 7.5, Dilution 4:5, 0.64 millimole amino acid per ml, read-out: Activity expressed in per cent of the total activity
  activity at 640000 µM: 65%
Plasmin [4]
  concentration at which it acts as an inhibitor of the action of plasmin: above 0.03 M
  concentration at which it exhibits an enhancing effect on the action of plasmin: up to 0.02 M

## NCCCC(=O)O [γ-amino butyric acid]
[1]
  stabilizing effect (in words): stabilize considerably better than β-alanine

## NCC(=O)NCC(=O)O [Glycyl glycine] (H-Gly-Gly-OH)
[1]
  stabilizing effect (in words): strongly stabilizing effect

## N[C@@H](CC(=O)O)C(=O)O [L(+)-aspartic acid]
[1]
  stabilizing effect (in words): almost identical with that of glycine

## NCCCC[C@H](N)C(=O)O [L-lysine]
[1]
  stabilizing effect (in words): strongly stabilizing effect
[1]; listed as lysine
  stabilizing effect (in words): most vigorous stabilizing effect
Plasmin [5]; 0.005 millimole L-lysine per plasmin unit, without lysine 70
  % activity after 120 min. at 25°C: 78%
Plasmin [5]; 0.005 millimole L-lysine per plasmin unit, without lysine 77
  % activity after 60 min. at 25°C: 88%
Plasmin [5]; [9]
  % activity after 60 min. at 25°C: 91%
  % activity after 120 min. at 25°C: 84%
Plasmin [5]; [10]
  % activity after 60 min. at 25°C: 99%
  % activity after 120 min. at 25°C: 91%
Plasmin [5]; [11]
  % activity after 60 min. at 25°C: 100%
  % activity after 120 min. at 25°C: 99%
Plasmin [5]; 25°C
  lysine concentration necessary to avoid a plasmin loss by standing for two hours: 0.04 millimole per plasmin unit
  lysine concentration sufficient to allow only a plasmin loss of about 20 per cent by standing for 2 hours: about 0.005 millimole per plasmin unit
Plasmin [5]; 35.5°C
  lysine concentration necessary to allow only a plasmin loss of about 20 per cent by standing for 2 hours: about 0.1 millimole per plasmin unit
Plasmin [5]; 35.5°C, plasmin concentration of 0.4 plasmin units per ml
  lysine concentration necessary to avoid a plasmin loss by standing for two hours: above 0.25 millimole per plasmin unit
Plasmin [6]; lysine 0.002 millimole per plasmin unit
  initial loss of plasmin in the course of a few minutes: 20 per cent
Plasmin [6]; lysine 0.04 millimole per plasmin unit
  initial loss of plasmin: avoid completely an initial loss
[3]; Table IV
  reversibility of the inactivation by dilution: reversible
[3]; [12]
  activity at 160000 µM: 97%
  activity at 320000 µM: 100%
  activity at 480000 µM: 92%
  activity at 640000 µM: 84%
  activity at 800000 µM: 88%
[3]; plasmin concentration 1/2 unit per millimole lysine
  lysine concentration above which it has an inactivating effect on the plasmin solution: above 0.32 millimole per ml

## CSCCC(N)C(=O)O (racemic) [DL-methionine]
[1]
  stabilizing effect (in words): possible to obtain a stabilizing effect

B1: plasmin: proteolytic enzyme plasmin in aqueous solution without amino acid addition (protein, UniProt P00747 20-580; P00747 581-810, looked up)
Plasmin heavy chain A: EPLDDYVNTQGASLFSVTKKQLGAGSIEECAAKCEEDEEFTCRAFQYHSKEQQCVIMAENRKSSIIIRMRDVVLFEKKVYLSECKTGNGKNYRGTMSKTKNGITCQKWSSTSPHRPRFSPATHPSEGLEENYCRNPDNDPQGPWCYTTDPEKRYDYCDILECEEECMHCSGENYDGKISKTMSGLECQAWDSQSPHAHGYIPSKFPNKNLKKNYCRNPDRELRPWCFTTDPNKRWELCDIPRCTTPPPSSGPTYQCLKGTGENYRGNVAVTVSGHTCQHWSAQTPHTHNRTPENFPCKNLDENYCRNPDGKRAPWCHTTNSQVRWEYCKIPSCDSSPVSTEQLAPTAPPELTPVVQDCYHGDGQSYRGTSSTTTTGKKCQSWSSMTPHRHQKTPENYPNAGLTMNYCRNPDADKGPWCFTTDPSVRWEYCNLKKCSGTEASVVAPPPVVLLPDVETPSEEDCMFGNGKGYRGKRATTVTGTPCQDWAAQEPHRHSIFTPETNPRAGLEKNYCRNPDGDVGGPWCYTTNPRKLYDYCDVPQCAAPSFDCGKPQVEPKKCPGR
Plasmin light chain B: VVGGCVAHPHSWPWQVSLRTRFGMHFCGGTLISPEWVLTAAHCLEKSPRPSSYKVILGAHQEVNLEPHVQEIEVSRLFLEPTRKDIALLKLSSPAVITDKVIPACLPSPNYVVADRTECFITGWGETQGTFGAGLLKEAQLPVIENKVCNRYEFLNGRVQSTELCAGHLAGGTDSCQGDSGGPLVCFEKDKYILQGVTSWGLGCARPNKPGVYVRVSRFVTWIEGVMRNN
modifications: Plasmin
notes: proteolytic enzyme plasmin in aqueous solution without amino acid addition
[7]
  plasmin concentration at which a neutral solution in water becomes turbid due to precipitation of plasmin: ≥ 0.01 unit per milliliter
[8]; criterion: highest permissible loss 20 per cent in 2 hours at 25°C
  plasmin concentration above which neutral solutions must be considered unstable: more than 0.1 unit per milliliter
[8]; pH 1 to 4, stored at 4°-5°C
  stability of acid sterile plasmin solution: stable for several months
[8]; pH-value of 2 to 3, temperatures up to 35°C
  stability of aqueous plasmin solution: practically completely stable
[2]; rapid loss of proteolytic activity at 37°C
  stability in neutral solutions: unstable
